Experimental findings from patent publication US20250122174A1 (Shenzhen Yuanli Shenwan Innovative Medicine Co., Ltd., priority 2022, published 2025) are described below.

Some results are limits rather than exact numbers.

The target in the assay is HPK1 (Homo sapiens (Human), UniProt Q92918). Nature of the assay: HPK1 Inhibition Assay (ADP-Glo kinase assay). It counts as biochemical. The settings on record: ATP 10 μM. An outline of the steps: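 ADP-Glo luminescence read-out after 1 h room-temperature kinase reaction with 10 μM ATP and 0.1 μg/ml MBP. Recombinant human HPK1 at 7.5 ng/μl; buffer 40 mM Tris pH 7.5, 20 mM MgCl2. Compounds serially diluted 5-fold over 10 points from 10 mM DMSO stock.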
Chain of HPK1 (Q92918 1-346 limits assumed): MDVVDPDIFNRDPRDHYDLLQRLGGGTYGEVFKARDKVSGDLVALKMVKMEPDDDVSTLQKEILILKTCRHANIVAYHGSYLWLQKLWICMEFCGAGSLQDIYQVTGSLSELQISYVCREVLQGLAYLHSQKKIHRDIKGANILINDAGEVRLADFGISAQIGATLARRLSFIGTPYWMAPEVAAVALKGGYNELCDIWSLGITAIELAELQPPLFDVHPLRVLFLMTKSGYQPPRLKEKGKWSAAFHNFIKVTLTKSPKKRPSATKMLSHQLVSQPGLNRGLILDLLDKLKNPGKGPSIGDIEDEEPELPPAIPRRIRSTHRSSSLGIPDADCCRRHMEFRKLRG
(In general: In ADP-Glo the light output rises with the ADP produced.)
Usually IC50 stands for the concentration needed to halve the response being measured. Lower therefore signals greater potency. `C[C@@H]1CN(c2c(NC(=O)c3ccc(=O)n(-c4c(F)cccc4F)n3)ccc3c2cnn3[C@H]2CCOC2)C[C@@H]1N` [Example 255, N-(4-((3R,4R)-3-amino-4-methylpyrrolidin-1-yl)-1-((S)-tetrahydrofuran-3-yl)-1H-indazol-5-yl)-1-(2,6-difluorophenyl)-6-oxo-1,6-dihydropyridazine-3-carboxamide] yielded an IC50 below 100 nM. Next, `CC[C@H](C)n1ncc2c(N3C[C@@H](C)[C@@H](N)C3)c(NC(=O)c3ccc(=O)n(-c4c(F)cccc4F)n3)ccc21` [Example 256, N-(4-((3R,4R)-3-amino-4-methylpyrrolidin-1-yl)-1-((S)-sec-butyl)-1H-indazol-5-yl)-1-(2,6-difluorophenyl)-6-oxo-1,6-dihydropyridazine-3-carboxamide]: below 100 nM. On to `CC[C@@H](C)n1ncc2c(N3C[C@@H](C)[C@@H](N)C3)c(NC(=O)c3ccc(=O)n(-c4c(F)cccc4F)n3)ccc21` [Example 257, N-(4-((3R,4R)-3-amino-4-methylpyrrolidin-1-yl)-1-((R)-sec-butyl)-1H-indazol-5-yl)-1-(2,6-difluorophenyl)-6-oxo-1,6-dihydropyridazine-3-carboxamide], for which the 50% inhibitory concentration (IC50) was below 100 nM. Next, `C[C@@H]1CN(c2c(NC(=O)c3ccc(=O)n(-c4c(F)cccc4F)n3)ccc3c2cnn3C2COC2)C[C@@H]1N` [Example 258, N-(4-((3R,4R)-3-amino-4-methylpyrrolidin-1-yl)-1-(oxetan-3-yl)-1H-indazol-5-yl)-1-(2,6-difluorophenyl)-6-oxo-1,6-dihydropyridazine-3-carboxamide]: below 100 nM; `C[C@H]1CN(c2c(NC(=O)c3ccc(=O)n(-c4c(F)cccc4F)n3)ccc3c2cnn3[C@@H]2CCOC2)C[C@@H]1N` [Example 259, N-(4-((3R,4S)-3-amino-4-methylpyrrolidin-1-yl)-1-((R)-tetrahydrofuran-3-yl)-1H-indazol-5-yl)-1-(2,6-difluorophenyl)-6-oxo-1,6-dihydropyridazine-3-carboxamide]: below 100 nM. Next, `C[C@H]1CN(c2c(NC(=O)c3ccc(=O)n(-c4c(F)cccc4F)n3)ccc3c2cnn3[C@H]2CCOC2)C[C@@H]1N` [Example 260, N-(4-((3R,4S)-3-amino-4-methylpyrrolidin-1-yl)-1-((S)-tetrahydrofuran-3-yl)-1H-indazol-5-yl)-1-(2,6-difluorophenyl)-6-oxo-1,6-dihydropyridazine-3-carboxamide]: below 100 nM; `C[C@@H]1CN(c2c(NC(=O)c3ccc(=O)n(-c4c(F)cccc4F)n3)ccc3c2cnn3C2CCOCC2)C[C@@H]1N` [Example 261, N-(4-((3R,4R)-3-amino-4-methylpyrrolidin-1-yl)-1-(tetrahydro-2H-pyran-4-yl)-1H-indazol-5-yl)-1-(2,6-difluorophenyl)-6-oxo-1,6-dihydropyridazine-3-carboxamide]: below 100 nM; `C[C@@H]1CN(c2c(NC(=O)c3ccc(=O)n(-c4c(F)cccc4F)n3)ccc3c2cnn3[C@@H]2CCOC2)C[C@@H]1N` [Example 262, N-(4-((3R,4R)-3-amino-4-methylpyrrolidin-1-yl)-1-((R)-tetrahydrofuran-3-yl)-1H-indazol-5-yl)-1-(2,6-difluorophenyl)-6-oxo-1,6-dihydropyridazine-3-carboxamide]: below 100 nM. Next, `N[C@@H]1CCCN(c2c(NC(=O)c3ccc(=O)n(-c4c(F)cccc4F)n3)ccc3c2cnn3[C@H]2CCOC2)C1` [Example 263, N-(4-((R)-3-aminopiperidin-1-yl)-1-((S)-tetrahydrofuran-3-yl)-1H-indazol-5-yl)-1-(2,6-difluorophenyl)-6-oxo-1,6-dihydropyridazine-3-carboxamide]: below 100 nM; `N[C@@H]1CCCN(c2c(NC(=O)c3ccc(=O)n(-c4c(F)cccc4F)n3)ccc3c2cnn3[C@@H]2CCOC2)C1` [Example 264, N-(4-((R)-3-aminopiperidin-1-yl)-1-((R)-tetrahydrofuran-3-yl)-1H-indazol-5-yl)-1-(2,6-difluorophenyl)-6-oxo-1,6-dihydropyridazine-3-carboxamide]: below 100 nM. Consider `NC1CCN(c2c(NC(=O)c3ccc(=O)n(-c4c(F)cccc4F)n3)ccc3c2cnn3[C@@H]2CCOC2)CC1` [Example 265, (R)-N-(4-(4-aminopiperidin-1-yl)-1-(tetrahydrofuran-3-yl)-1H-indazol-5-yl)-1-(2,6-difluorophenyl)-6-oxo-1,6-dihydropyridazine-3-carboxamide], for which the IC50 is below 100 nM.

The molecule `NC1CCN(c2c(NC(=O)c3ccc(=O)n(-c4c(F)cccc4F)n3)ccc3c2cnn3[C@H]2CCOC2)CC1` [Example 266, (S)-N-(4-(4-aminopiperidin-1-yl)-1-(tetrahydrofuran-3-yl)-1H-indazol-5-yl)-1-(2,6-difluorophenyl)-6-oxo-1,6-dihydropyridazine-3-carboxamide] returned an IC50 below 100 nM. Next, `CC1(C)CN(c2c(NC(=O)c3ccc(=O)n(-c4c(F)cccc4F)n3)ccc3c2cnn3[C@@H]2CCOC2)C[C@@H]1N` [Example 267, N-(4-((R)-4-amino-3,3-dimethylpyrrolidin-1-yl)-1-((R)-tetrahydrofuran-3-yl)-1H-indazol-5-yl)-1-(2,6-difluorophenyl)-6-oxo-1,6-dihydropyridazine-3-carboxamide]: below 100 nM. Regarding `CC1(C)CN(c2c(NC(=O)c3ccc(=O)n(-c4c(F)cccc4F)n3)ccc3c2cnn3[C@@H]2CCOC2)C[C@H]1N` [Example 268, N-(4-((S)-4-amino-3,3-dimethylpyrrolidin-1-yl)-1-((R)-tetrahydrofuran-3-yl)-1H-indazol-5-yl)-1-(2,6-difluorophenyl)-6-oxo-1,6-dihydropyridazine-3-carboxamide], the IC50 is below 100 nM. Next, `CC1(C)CN(c2c(NC(=O)c3ccc(=O)n(-c4c(F)cccc4F)n3)ccc3c2cnn3[C@H]2CCOC2)C[C@@H]1N` [Example 269, N-(4-((R)-4-amino-3,3-dimethylpyrrolidin-1-yl)-1-((S)-tetrahydrofuran-3-yl)-1H-indazol-5-yl)-1-(2,6-difluorophenyl)-6-oxo-1,6-dihydropyridazine-3-carboxamide]: below 100 nM. Next, `CC1(C)CN(c2c(NC(=O)c3ccc(=O)n(-c4c(F)cccc4F)n3)ccc3c2cnn3[C@H]2CCOC2)C[C@H]1N` [Example 270, N-(4-((S)-4-amino-3,3-dimethylpyrrolidin-1-yl)-1-((S)-tetrahydrofuran-3-yl)-1H-indazol-5-yl)-1-(2,6-difluorophenyl)-6-oxo-1,6-dihydropyridazine-3-carboxamide]: below 100 nM; `N[C@H]1CN(c2c(NC(=O)c3ccc(=O)n(-c4c(F)cccc4F)n3)ccc3c2cnn3[C@H]2CCCOC2)CC12CC2` [Example 271, N-(4-((R)-7-amino-5-azaspiro[2.4]heptan-5-yl)-1-((S)-tetrahydro-2H-pyran-3-yl)-1H-indazol-5-yl)-1-(2,6-difluorophenyl)-6-oxo-1,6-dihydropyridazine-3-carboxamide]: below 100 nM. Next, `N[C@H]1CN(c2c(NC(=O)c3ccc(=O)n(-c4c(F)cccc4F)n3)ccc3c2cnn3[C@@H]2CCCOC2)CC12CC2` [Example 272, N-(4-((R)-7-amino-5-azaspiro[2.4]heptan-5-yl)-1-((R)-tetrahydro-2H-pyran-3-yl)-1H-indazol-5-yl)-1-(2,6-difluorophenyl)-6-oxo-1,6-dihydropyridazine-3-carboxamide]: below 100 nM; `C[C@H]1CN(c2c(NC(=O)c3ccc(=O)n(-c4c(F)cccc4F)n3)ccc3c2cnn3C2CCOCC2)C[C@@H]1N` [Example 273, N-(4-((3R,4S)-3-amino-4-methylpyrrolidin-1-yl)-1-(tetrahydro-2H-pyran-4-yl)-1H-indazol-5-yl)-1-(2,6-difluorophenyl)-6-oxo-1,6-dihydropyridazine-3-carboxamide]: below 100 nM. `N[C@@H]1CCN(c2c(NC(=O)c3ccc(=O)n(-c4c(F)cccc4F)n3)ccc3c2cnn3C2CCOCC2)C1` [Example 274, N-[4-[(3R)-3-aminopyrrolidin-1-yl]-1-tetrahydropyran-4-yl-indazol-5-yl]-1-(2,6-difluorophenyl)-6-oxo-pyridazine-3-carboxamid] registered an IC50 below 100 nM. Next, `[2H]C([2H])([2H])C([2H])(n1ncc2c(N3C[C@@H](C)[C@@H](N)C3)c(NC(=O)c3ccc(=O)n(-c4c(F)cccc4F)n3)ccc21)C([2H])([2H])[2H]` [Example 275, N-(4-((3R,4R)-3-amino-4-methylpyrrolidin-1-yl)-1-(propan-2-yl-d7)-1H-indazol-5-yl)-1-(2,6-difluorophenyl)-6-oxo-1,6-dihydropyridazine-3-carboxamide]: below 100 nM; `[2H]C([2H])([2H])C([2H])(n1ncc2c(N3C[C@H](N)C4(CC4)C3)c(NC(=O)c3ccc(=O)n(-c4c(F)cccc4F)n3)ccc21)C([2H])([2H])[2H]` [Example 276, (R)-N-(4-(7-amino-5-azaspiro[2.4]heptan-5-yl)-1-(propan-2-yl-d7)-1H-indazol-5-yl)-1-(2,6-difluorophenyl)-6-oxo-1,6-dihydropyridazine-3-carboxamide]: below 100 nM. Consider `[2H]C([2H])([2H])C(n1ncc2c(N3C[C@H](N)C4(CC4)C3)c(NC(=O)c3ccc(=O)n(-c4c(F)cccc4F)n3)ccc21)C([2H])([2H])[2H]` [Example 277, (R)-N-(4-(7-amino-5-azaspiro[2.4]heptan-5-yl)-1-(propan-2-yl-1,1,1,3,3,3-d6)-1H-indazol-5-yl)-1-(2,6-difluorophenyl)-6-oxo-1,6-dihydropyridazine-3-carboxamide], for which the IC50 is below 100 nM. Next, `[2H]C([2H])([2H])C(n1ncc2c(N3C[C@@H](C)[C@@H](N)C3)c(NC(=O)c3ccc(=O)n(-c4c(F)cccc4F)n3)ccc21)C([2H])([2H])[2H]` [Example 278, N-(4-((3R,4R)-3-amino-4-methylpyrrolidin-1-yl)-1-(propan-2-yl-1,1,1,3,3,3-d6)-1H-indazol-5-yl)-1-(2,6-difluorophenyl)-6-oxo-1,6-dihydropyridazine-3-carboxamide]: below 100 nM.
